# Assay results: the supplement of paper PMC10307832
# Experiments:
# Assay in all cases: relative viability (nuclei count vs DMSO), 5 days (fraction); higher = more cells survive
# [1] = tested on: BEN
# Summary of the method: (§1)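 The day after seeding in 1536-well plates, lung cancer cell lines were treated by pin tool with a single drug, or with a fixed anchor-drug dose together with five library-drug doses (not always all listed) in √10 steps. After 5 days, a combined fix-and-stain solution (final 0.05% Triton X-100, 1% formaldehyde, 1 ug/ml Hoechst) was added. Nuclei counted on 4× images gave relative viability as treated counts over vehicle counts, reported as the median of duplicate plates.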
# [2] = tested on: CAL-12T
# Summary of the method: as §1
# [3] = tested on: COR-L23
# Summary of the method: as §1
# [4] = tested on: HCC-366
# Summary of the method: as §1
# [5] = tested on: LOU-NH91
# Summary of the method: as §1
# [6] = tested on: LU99A
# Summary of the method: as §1
# [7] = tested on: NCI-H1355
# Summary of the method: as §1
# [8] = tested on: NCI-H1437
# Summary of the method: as §1
# [9] = tested on: NCI-H1563
# Summary of the method: as §1
# [10] = tested on: NCI-H1651
# Summary of the method: as §1
# [11] = tested on: NCI-H1734
# Summary of the method: as §1
# [12] = tested on: NCI-H1793
# Summary of the method: as §1
# [13] = tested on: NCI-H1975
# Summary of the method: as §1
# [14] = tested on: NCI-H2023
# Summary of the method: as §1
# [15] = tested on: NCI-H2085
# Summary of the method: as §1
# [16] = tested on: NCI-H358
# Summary of the method: as §1
# [17] = tested on: NCI-H441
# Summary of the method: as §1
# [18] = tested on: NCI-H460
# Summary of the method: as §1
# [19] = tested on: NCI-H838
# Summary of the method: as §1
# [20] = tested on: SK-LU-1
# Summary of the method: as §1
structure (smiles),measurement,setting,value
CC(=O)O[C@@]12CO[C@@H]1C[C@H](O)[C@@]1(C)C(=O)[C@H](O)C3=C(C)[C@@H](OC(=O)[C@H](O)[C@@H](NC(=O)OC(C)(C)C)c4ccccc4)C[C@@](O)([C@@H](OC(=O)c4ccccc4)[C@H]21)C3(C)C [Docetaxel] + C[C@]1(O)C[C@@H](c2nc(-c3ccc4ccc(-c5ccccc5)nc4c3)c3c(N)nccn32)C1 [Linsitinib] (partner 1 µM),relative viability,[1]; first compound 0.0002 µM,0.827
same,relative viability,[1]; first compound 0.000632 µM,0.812
same,relative viability,[1]; first compound 0.002 µM,0.473
same,relative viability,[1]; first compound 0.006325 µM,0.246
same,relative viability,[1]; first compound 0.02 µM,0.189
same,relative viability,[2]; first compound 0.0002 µM,0.725
same,relative viability,[2]; first compound 0.000632 µM,0.694
same,relative viability,[2]; first compound 0.002 µM,0.303
same,relative viability,[2]; first compound 0.006325 µM,0.184
same,relative viability,[2]; first compound 0.02 µM,0.14
same,relative viability,[3]; first compound 0.0002 µM,0.813
same,relative viability,[3]; first compound 0.000632 µM,0.722
same,relative viability,[3]; first compound 0.002 µM,0.259
same,relative viability,[3]; first compound 0.006325 µM,0.101
same,relative viability,[3]; first compound 0.02 µM,0.0798
same,relative viability,[4]; first compound 0.0002 µM,0.423
same,relative viability,[4]; first compound 0.000632 µM,0.545
same,relative viability,[4]; first compound 0.002 µM,0.0386
same,relative viability,[4]; first compound 0.006325 µM,0.012
same,relative viability,[4]; first compound 0.02 µM,0.0114
same,relative viability,[5]; first compound 0.0002 µM,0.967
same,relative viability,[5]; first compound 0.000632 µM,0.8
same,relative viability,[5]; first compound 0.002 µM,0.586
same,relative viability,[5]; first compound 0.006325 µM,0.434
same,relative viability,[5]; first compound 0.02 µM,0.324
same,relative viability,[6]; first compound 0.0002 µM,0.52
same,relative viability,[6]; first compound 0.000632 µM,0.458
same,relative viability,[6]; first compound 0.002 µM,0.356
same,relative viability,[6]; first compound 0.006325 µM,0.262
same,relative viability,[6]; first compound 0.02 µM,0.169
same,relative viability,[7]; first compound 0.0002 µM,0.75
same,relative viability,[7]; first compound 0.000632 µM,0.771
same,relative viability,[7]; first compound 0.002 µM,0.467
same,relative viability,[7]; first compound 0.006325 µM,0.297
same,relative viability,[7]; first compound 0.02 µM,0.188
same,relative viability,[8]; first compound 0.0002 µM,0.964
same,relative viability,[8]; first compound 0.000632 µM,0.805
same,relative viability,[8]; first compound 0.006325 µM,0.124
same,relative viability,[8]; first compound 0.02 µM,0.0906
same,relative viability,[9]; first compound 0.0002 µM,1.19
same,relative viability,[9]; first compound 0.000632 µM,1.15
same,relative viability,[9]; first compound 0.002 µM,1.05
same,relative viability,[9]; first compound 0.006325 µM,0.988
same,relative viability,[9]; first compound 0.02 µM,0.617
same,relative viability,[10]; first compound 0.0002 µM,0.876
same,relative viability,[10]; first compound 0.000632 µM,0.746
same,relative viability,[10]; first compound 0.002 µM,0.229
same,relative viability,[10]; first compound 0.006325 µM,0.112
same,relative viability,[10]; first compound 0.02 µM,0.117
same,relative viability,[11]; first compound 0.0002 µM,0.918
same,relative viability,[11]; first compound 0.000632 µM,0.825
same,relative viability,[11]; first compound 0.002 µM,0.516
same,relative viability,[11]; first compound 0.006325 µM,0.373
same,relative viability,[11]; first compound 0.02 µM,0.235
same,relative viability,[12]; first compound 0.0002 µM,1.01
same,relative viability,[12]; first compound 0.000632 µM,0.939
same,relative viability,[12]; first compound 0.002 µM,0.666
same,relative viability,[12]; first compound 0.006325 µM,0.352
same,relative viability,[12]; first compound 0.02 µM,0.218
same,relative viability,[13]; first compound 0.0002 µM,0.861
same,relative viability,[13]; first compound 0.000632 µM,0.962
same,relative viability,[13]; first compound 0.002 µM,0.309
same,relative viability,[13]; first compound 0.006325 µM,0.189
same,relative viability,[13]; first compound 0.02 µM,0.161
same,relative viability,[14]; first compound 0.0002 µM,0.703
same,relative viability,[14]; first compound 0.000632 µM,0.72
same,relative viability,[14]; first compound 0.002 µM,0.144
same,relative viability,[14]; first compound 0.006325 µM,0.159
same,relative viability,[14]; first compound 0.02 µM,0.0739
same,relative viability,[15]; first compound 0.0002 µM,0.868
same,relative viability,[15]; first compound 0.000632 µM,0.888
same,relative viability,[15]; first compound 0.002 µM,0.652
same,relative viability,[15]; first compound 0.006325 µM,0.576
same,relative viability,[15]; first compound 0.02 µM,0.276
same,relative viability,[16]; first compound 0.0002 µM,0.63
same,relative viability,[16]; first compound 0.000632 µM,0.371
same,relative viability,[16]; first compound 0.002 µM,0.206
same,relative viability,[16]; first compound 0.02 µM,0.136
same,relative viability,[17]; first compound 0.0002 µM,0.405
same,relative viability,[17]; first compound 0.000632 µM,0.27
same,relative viability,[17]; first compound 0.002 µM,0.172
same,relative viability,[17]; first compound 0.006325 µM,0.224
same,relative viability,[17]; first compound 0.02 µM,0.117
same,relative viability,[18]; first compound 0.0002 µM,0.715
same,relative viability,[18]; first compound 0.000632 µM,0.153
same,relative viability,[18]; first compound 0.002 µM,0.0174
same,relative viability,[18]; first compound 0.006325 µM,0.0113
same,relative viability,[18]; first compound 0.02 µM,0.0074
same,relative viability,[19]; first compound 0.0002 µM,0.98
same,relative viability,[19]; first compound 0.000632 µM,1.1
same,relative viability,[19]; first compound 0.002 µM,0.247
same,relative viability,[19]; first compound 0.006325 µM,0.166
same,relative viability,[19]; first compound 0.02 µM,0.145
same,relative viability,[20]; first compound 0.0002 µM,0.899
same,relative viability,[20]; first compound 0.000632 µM,0.437
same,relative viability,[20]; first compound 0.002 µM,0.406
same,relative viability,[20]; first compound 0.006325 µM,0.344
same,relative viability,[20]; first compound 0.02 µM,0.232
